US20020052331A1, “Compositions and methods for antisense inhibition of protein translation” (priority 1990, published 2002)
Like-named read-outs stand apart in the source and are kept apart here. Strand notation (5' to 3'): a small letter for the sugar, then the base; units joined by * are phosphorothioate-linked, units joined directly phosphodiester-linked; [ ] holds rarer units or linkages, { } end groups; capitals alone tell only the bases. [MMI] = methylene(methylimino) internucleoside backbone linkage; e = 2'-O-(2-methoxyethyl) (MOE); [5mC] = 5-methylcytosine; d = 2'-deoxy (DNA)

How the values were obtained:
ICAM-1 mRNA [1] = experiment: ELISA of human ICAM-1 protein expression in HUVECs (mAb84H10); type: cell-based; conditions: FIG. 4 experiment
ICAM-1 mRNA [2] = experiment: Cell surface ICAM-1 expression in U937 cells after electroporation of MMI oligomers; type: cell-based, human; conditions: six concentrations 4 to 40 μM, N.A. = IC50 not obtained in the given dose range, read-out: Antisense activity (IC50) Electroporate
Procedure: ISIS 14293-14296 are corresponding oligomers with alternating MMI/P═S backbones.
U937 cells were washed once in cold Opti-MEM (Gibco-BRL, Grand Island, N.Y.) and resuspended at 4×10^6 cells/ml. Oligomer was added to 0.1 ml of cells and incubated for 10 minutes on ice. Cells were transferred to a 1 mm gap electrode (BTX, San Diego, Calif.) and electroporated at 0.75 kV/cm. Cells were incubated at room temperature for 10 minutes and transferred to pre-warmed medium. Cells were allowed to rest for 1.5 hours before ICAM-1 expression was induced with 5 ng/ml TNF-αovernight. Cells were stained with an anti-ICAM-1-PE antibody (Pharmingen, San Diego CA) the next day.

ICAM-1 mRNA [3] = experiment: Cell surface ICAM-1 expression in HUVECs after Lipofectin delivery of MMI oligomers; type: cell-based, human; conditions: six concentrations 6.2 to 200 nM, N.A. = IC50 not obtained in the given dose range, read-out: Antisense activity (IC50) Lipofectin
ICAM-1 mRNA [4] = experiment: Reduction of ICAM-1 protein levels in HUVEC cells (LIPOFECTIN delivery, FACS); type: cell-based, human
E-selectin mRNA [5] = experiment: ELISA of E-selectin expression in HUVECs; type: cell-based, human; conditions: HUVECs; for IC50: ELISA, read-out: IC50 for reduction of E-selectin expression
E-selectin mRNA [6] = experiment: Northern blot analysis of E-selectin mRNA levels in oligomer-treated HUVECs; type: cell-based, human
Description: ISIS 11929 is an antisense oligonucleotide targeted to E-selectin, another cellular adhesion molecule, and was included in this experiment as a control.
(§1) Total cellular RNA was isolated by cellular lysis using CATRIMOX-14 surfactant (Iowa Biotechnology Group, Oakdale Iowa). Isolated RNA was separated on a 1.2% agarose gel containing 1.1% formaldehyde, then transferred to a nylon membrane and UV crosslinked to the membrane using a Stratagene UV crosslinker 2400 (La Jolla Calif.). Blots were hybridized with cDNA probes in QUICKHYB solution (Stratagene). Blots were washed twice at room temperature in 2×SSC with 0.1% SDS for 10 minutes each and then once in […] SSC with 0.1% SDS at 65° C. for 30 minutes.

ICAM-1 mRNA [7] = experiment: Northern blot analysis of ICAM-1 transcript abundance in oligomer-treated HUVECs; type: cell-based, human; conditions: FIG. 2
Description: Total cellular RNA was isolated from oligomer-treated HUVECs and analyzed to determine if inhibition of ICAM-1 protein expression resulted from antisense-promoted degradation of the target transcript.
as §1

ICAM-1 mRNA [8] = experiment: ICAM-1 expression in U937 cells after electroporation of PNA oligomer (FACS); type: cell-based, human; conditions: electroporated into U937 cells
Description: A PNA oligomer, ISIS 10535 (SEQ ID NO: 2), was synthesized, which is a shortened version of SEQ ID NO: 1 made as a PNA, with three arginines added at the 5′ end and one lysine added at the 3′ end. This oligomer was electroporated into U937 cells and a potent dose-response was obtained.
Cells were removed from plate surfaces by brief trypsinization with 0.25% trypsin in PBS. Trypsin activity was quenched with a solution of 2% bovine serum albumin and 0.2% sodium azide in PBS (+Mg/Ca). Cells were pelleted by centrifugation at 1000 rpm (Beckman GPR centrifuge), resuspended in PBS and stained with 3 μl/10^5 cells of ICAM-1 specific antibody, CD54-PE (Becton Dickinson, Mansfield Mass.) and 0.1 μg of control conjugated antibody, IgG2b-PE (Pharmingen, San Diego Calif.). Antibodies were incubated with the cells for 30 minutes at 4° C. in the dark, under gentle agitation. Cells were washed and then resuspended in 0.3 ml of FACSFLOW buffer (Becton Dickinson) with 0.5% formaldehyde. Expression of cell surface ICAM-1 was then determined by flow cytometry using a Becton Dickinson FACScan (San Jose, Calif.). ICAM-1 expression was calculated as a percentage of control expression.
Cells were washed in PBS and resuspended in PBS at 1×10^6 cells/ml. […] ICAM-1 expression was quantitated by FACS as in Example 4.

[9] = read-out: IC50 for inhibition of ICAM-1 protein expression

Substance: ISIS 13886: GCAACTCTGAGTAGCAGAGG (SEQ ID NO: 10), uniform P═O/2′MOE; ICAM-1 n.t. 6-25 (antisense eGe[5mC]eAeAe[5mC]eTe[5mC]eTeGeAeGeTeAeGe[5mC]eAeGeAeGdG)
- IC50 (ICAM-1 mRNA [1]; [9]): > 50 nM
- IC50 (ICAM-1 mRNA [1]; tested only up to 50 nM, read-out: estimated IC50 by extrapolation of the dose-response curve): ~60 nM

Substance: ISIS 14294: T*GA*GT*AG*CA*GA*GG*AG*CT*C (SEQ ID NO: 12), alternating P═S/MMI; ICAM-1 n.t. 1-18 (TGAGTAGCAGAGGAGCTC; linkages [MMI]s[MMI]s[MMI]s[MMI]s[MMI]s[MMI]s[MMI]s[MMI]s[MMI] (s phosphorothioate, o phosphodiester), sugars by position and methylation of C not given here; 3'-terminal nucleotide 2'-deoxy, non-terminal cytosines 5-methylated)
- IC50 (ICAM-1 mRNA [2]): 20000 nM
- IC50 (ICAM-1 mRNA [3]): 175 nM

Substance: ISIS 14292: T*AG*CA*GA*GG*AG*CT*C (SEQ ID NO: 14), alternating P═O/MMI; ICAM-1 n.t. 1-14 (TAGCAGAGGAGCTC; linkages [MMI]o[MMI]o[MMI]o[MMI]o[MMI]o[MMI]o[MMI] (s phosphorothioate, o phosphodiester), sugars by position and methylation of C not given here; 3'-terminal nucleotide 2'-deoxy, non-terminal cytosines 5-methylated)
- IC50 (ICAM-1 mRNA [2]): 15000 nM

Substance: ISIS 14293: T*CT*GA*GT*AG*CA*GA*GG*AG*CT*C (SEQ ID NO: 1), alternating P═S/MMI; ICAM-1 n.t. 1-20 (TCTGAGTAGCAGAGGAGCTC; linkages [MMI]s[MMI]s[MMI]s[MMI]s[MMI]s[MMI]s[MMI]s[MMI]s[MMI]s[MMI] (s phosphorothioate, o phosphodiester), sugars by position and methylation of C not given here; 3'-terminal nucleotide 2'-deoxy, non-terminal cytosines 5-methylated)
- IC50 (ICAM-1 mRNA [2]): 32000 nM
- IC50 (ICAM-1 mRNA [3]): 115 nM

Substance: ISIS 11158: SEQ ID NO: 1, 2′-methoxyethoxy, phosphodiester (P═O); targeted to ICAM-1 5′ cap (antisense TCTGAGTAGCAGAGGAGCTC; all 2'-MOE, all phosphodiester, methylation of C not given here)
- IC50 (ICAM-1 mRNA [1]; [9]): ~5 nM
- IC50 (ICAM-1 mRNA [2]): 1000 nM
- ICAM-1 protein expression at the oligonucleotide concentrations of the Northern experiment (ICAM-1 mRNA [4]; HUVECs): completely inhibited
- IC50 (ICAM-1 mRNA [4]; read-out: IC50 (concentration required for 50% inhibition of ICAM-1 levels), HUVEC cells): ~9 nM

Substance: ISIS 11929: SEQ ID NO: 3, P═O all 2′-MOE except 3′ nt is deoxy, all C's 5meC; E-selectin 5′ cap (antisense eGeAeAeGeTe[5mC]eAeGe[5mC]e[5mC]eAeAeGeAeAe[5mC]eAeGe[5mC]dT)
- IC50 (E-selectin mRNA [5]; FIG. 5 experiment): < 3 nM
- IC50 (E-selectin mRNA [5]; equivalent (second) experiment): < 3 nM
- IC50 for inhibition of E-selectin expression (E-selectin mRNA [5]; FIG. 3 experiment): well below this
- inhibition of E-selectin expression (E-selectin mRNA [5]; oligomer concentration of 50 nM): ~100%
- E-selectin mRNA levels (E-selectin mRNA [6]): did cause an increase
- relative abundance of the ICAM-1 transcript (Northern blot) (ICAM-1 mRNA [7]): did not cause an increase

Substance: ISIS 10535: PNA oligomer (SEQ ID NO: 2), shortened SEQ ID NO: 1, three arginines at the 5′ end and one lysine at the 3′ end (antisense TCTGAGTAGCAGAGGAGC; all peptide nucleic acid (PNA); three arginines at 5' end, one lysine at 3' end)
- ICAM-1 level at higher doses (ICAM-1 mRNA [8]): below baseline levels
- IC50 (ICAM-1 mRNA [8]; read-out: IC50 for ICAM-1 reduction): < 5000 nM

Substance: ISIS 14290: T*GA*GT*AG*CA*GA*GG*AG*CT*C (SEQ ID NO: 12), alternating P═O/MMI; ICAM-1 n.t. 1-18 (TGAGTAGCAGAGGAGCTC; linkages [MMI]o[MMI]o[MMI]o[MMI]o[MMI]o[MMI]o[MMI]o[MMI]o[MMI] (s phosphorothioate, o phosphodiester), sugars by position and methylation of C not given here; 3'-terminal nucleotide 2'-deoxy, non-terminal cytosines 5-methylated)
- IC50 (ICAM-1 mRNA [2]): 7000 nM

Substance: ISIS 14295: A*GT*AG*CA*GA*GG*AG*CT*C (SEQ ID NO: 13), alternating P═S/MMI; ICAM-1 n.t. 1-16 (AGTAGCAGAGGAGCTC; chemistry not fully specified)
- IC50 (ICAM-1 mRNA [2]): 35000 nM

Substance: ISIS 13884: GGCTGAGGTTGCAACTCTGA (SEQ ID NO: 9), uniform P═O/2′MOE; ICAM-1 n.t. 16-35 (antisense eGeGe[5mC]eTeGeAeGeGeTeTeGe[5mC]eAeAe[5mC]eTe[5mC]eTeGdA)
- IC50 (ICAM-1 mRNA [1]; [9]): ~40 nM
